According to ChEMBL document CHEMBL1201862, “PubChem BioAssay data set” (2004):
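Growth conditions: 96-well plates. Treatment: test compound, 48 hours, 5 concentrations. Analysis: linear interpolation between bracketing concentrations; unreached endpoints set to highest concentration. At the GI50, growth is halved.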 The source made the active and inactive calls. Rule as the data show it: active = GI50 up to about 1.1 µM and inactive = higher.

Columns and labels:
Test in all cases: growth of human tumour cells (NCI), 48 h
HCT-116 = test system: HCT-116
OVCAR-8 = test system: OVCAR-8
NCI-H23 = test system: NCI-H23
SK-OV-3 = test system: SK-OV-3
HOP-62 = test system: HOP-62
SF-268 = test system: SF-268
LOX IMVI = test system: LOX IMVI
ACHN = test system: ACHN
M14 = test system: M14
NCI-H460 = test system: NCI-H460
UO-31 = test system: UO-31
K562 = test system: K562
RXF 393 = test system: RXF 393
UACC-257 = test system: UACC-257
NCI-H522 = test system: NCI-H522
CCRF-CEM = test system: CCRF-CEM
EKVX = test system: EKVX
OVCAR-3 = test system: OVCAR-3

Row | SMILES | GI50 (HCT-116) | GI50 (OVCAR-8) | GI50 (NCI-H23) | GI50 (SK-OV-3) | GI50 (HOP-62) | GI50 (SF-268) | GI50 (LOX IMVI) | GI50 (ACHN) | GI50 (M14) | GI50 (NCI-H460) | GI50 (UO-31) | GI50 (K562) | GI50 (RXF 393) | GI50 (UACC-257) | GI50 (NCI-H522) | GI50 (CCRF-CEM) | GI50 (EKVX) | GI50 (OVCAR-3)
1 | COc1ccc(C2S/C(=C\c3cccc(OC)c3)C(=O)N2NC(=O)Cc2ccccc2)cc1 (stereo not given) | > 100 µM (inactive) | > 100 µM (inactive) | > 100 µM (inactive) | > 100 µM (inactive) | > 100 µM (inactive) | > 100 µM (inactive) | > 100 µM (inactive) | > 100 µM (inactive) | > 100 µM (inactive) | > 100 µM (inactive) | > 100 µM (inactive) | > 100 µM (inactive) | > 100 µM (inactive) | > 100 µM (inactive) | > 100 µM (inactive) | > 100 µM (inactive) |  | 
2 | Cc1cnc2c(C)ccc([N+](=O)[O-])c2c1NCCCN(C)C | > 100 µM (inactive) | > 100 µM (inactive) | 31.5 µM (inactive) | 75.3 µM (inactive) | > 100 µM (inactive) | > 100 µM (inactive) | > 100 µM (inactive) | > 100 µM (inactive) | > 100 µM (inactive) | > 100 µM (inactive) | > 100 µM (inactive) | > 100 µM (inactive) |  | > 100 µM (inactive) | > 100 µM (inactive) | > 100 µM (inactive) | > 100 µM (inactive) | > 100 µM (inactive)
3 | CCc1cc(C(=O)OC)cn1C(=N)c1ccc(Cl)cc1 | > 100 µM (inactive) | > 100 µM (inactive) | > 100 µM (inactive) | > 100 µM (inactive) | > 100 µM (inactive) | > 100 µM (inactive) | > 100 µM (inactive) | > 100 µM (inactive) | > 100 µM (inactive) | > 100 µM (inactive) | > 100 µM (inactive) | > 100 µM (inactive) |  | > 100 µM (inactive) |  | > 100 µM (inactive) | > 100 µM (inactive) | > 100 µM (inactive)
4 | CCCCCCCCOCC(COC(=O)CCCCCCC)OC(=O)CCCCCCC (stereo not given) | > 100 µM (inactive) | > 100 µM (inactive) | > 100 µM (inactive) | > 100 µM (inactive) | > 100 µM (inactive) | > 100 µM (inactive) | > 100 µM (inactive) | > 100 µM (inactive) | > 100 µM (inactive) | > 100 µM (inactive) | > 100 µM (inactive) | > 100 µM (inactive) |  | > 100 µM (inactive) |  | 57 µM (inactive) |  | > 100 µM (inactive)
5 | O=[N+]([O-])c1ccc(Sc2c3ccccc3nc3ccccc23)cc1 | > 100 µM (inactive) | > 100 µM (inactive) | > 100 µM (inactive) |  | > 100 µM (inactive) | > 100 µM (inactive) | > 100 µM (inactive) | > 100 µM (inactive) | > 100 µM (inactive) | > 100 µM (inactive) | > 100 µM (inactive) | > 100 µM (inactive) | > 100 µM (inactive) | > 100 µM (inactive) | 74.1 µM (inactive) | > 100 µM (inactive) | > 100 µM (inactive) | > 100 µM (inactive)
6 | CC(=O)c1cccc(NC(=O)C(=O)Nn2c(N)nnc2N)c1 | > 100 µM (inactive) | > 100 µM (inactive) | > 100 µM (inactive) | > 100 µM (inactive) | > 100 µM (inactive) | > 100 µM (inactive) | > 100 µM (inactive) | > 100 µM (inactive) | > 100 µM (inactive) | > 100 µM (inactive) | > 100 µM (inactive) | > 100 µM (inactive) | > 100 µM (inactive) | > 100 µM (inactive) | > 100 µM (inactive) | > 100 µM (inactive) | > 100 µM (inactive) | 
7 | O=C1/C(=C/c2ccccc2)CN(C(=O)C(F)(F)F)C/C1=C\c1ccccc1 | 0.333 µM (active) | 1.64 µM (inactive) | 1.83 µM (inactive) |  | 11.5 µM (inactive) | 3.94 µM (inactive) | 1.22 µM (inactive) | 2.24 µM (inactive) | 1.61 µM (inactive) | 1.56 µM (inactive) | 2.18 µM (inactive) | 0.467 µM (active) | 1.84 µM (inactive) | 1.66 µM (inactive) | 2.74 µM (inactive) | 1.54 µM (inactive) | > 10 µM (inactive) | 3.25 µM (inactive)
8 | COC1=C2C[C@H](O)C(C)C[C@@]2(OC)OC1=O (stereo not given in full) | > 100 µM (inactive) |  | > 100 µM (inactive) | > 100 µM (inactive) | > 100 µM (inactive) | > 100 µM (inactive) | > 100 µM (inactive) |  | > 100 µM (inactive) | > 100 µM (inactive) | > 100 µM (inactive) | > 100 µM (inactive) | > 100 µM (inactive) | > 100 µM (inactive) | > 100 µM (inactive) | > 100 µM (inactive) |  | > 100 µM (inactive)
